Results as given in EP0059009A1, “Pharmaceutical compositions containing quinoline derivatives as active component, a method for the preparation of such compositions, new quinoline derivatives and a method for the preparation thereof” (ACF Chemiefarma N.V., priority 1981, dated 1982).

How the values were obtained:
guinea pigs = assay: Guinea pigs electrostimulation test (arrhythmias induced by electrostimulation of the right ventricle); format: in vivo; conditions: for Percent increase in voltage (%) required for arrhythmia: given intraduodenally 30 min before stimulation, anaesthetised guinea pigs, treated vs control animals
Method: Arrhythmias are induced in guinea pigs by electro- stimulation of the right ventricle of the heart. The animals are anaesthesized with urethane (1.2 g/kg i.p.) and artificially respirated before a needle electrode is inserted in the right venticle of the heart. Substances are given intraduodinally 30 min. before the stimulation at a standard dose of 32 mg/kg.
The voltage needed for induction of extra systoles in control animals (n = 6) is compared with that required for induction of arrhythmias in treated animals (n = 6).
-This method is based on the work of L. Szekeres and G.J. Papp, Naunyn-Schmiedebergs Arch. Exp. Path. Pharmak., 245, 70 (1963).

malaria = conditions: reported by Ainly and King, Proc. Roy. Soc. (London) B 125, 49 (1938); cited from earlier work

C=CC1CNCCC1CCC(O)c1ccnc2ccc(OC)cc12 (stereo not drawn) [I, Quinicinol-l.bifumarate]
Percent increase in voltage (%) required for arrhythmia (guinea pigs; Dose 16 mg/kg): 25% | Percent increase in voltage (%) required for arrhythmia (guinea pigs; Dose 32 mg/kg): 114%

C=CC1CNCCC1CCC(O)c1ccnc2ccccc12 (stereo not drawn) [III]
Percent increase in voltage (%) required for arrhythmia (guinea pigs; Dose 32 mg/kg): 35%

CCC1CNCCC1CCC(O)c1ccnc2ccc(OC)cc12 (stereo not drawn) [II]
Percent increase in voltage (%) required for arrhythmia (guinea pigs; Dose 16 mg/kg): 33.9% | Percent increase in voltage (%) required for arrhythmia (guinea pigs; Dose 32 mg/kg): 176%

CCC1CNCCC1CC(O)Cc1ccnc2ccc(OC)cc12 (stereo not drawn) [Reference com-pound of formula 6a, reference compound]
Percent increase in voltage (%) required for arrhythmia (guinea pigs; Dose 16 mg/kg): 0% | anti-arrhythmic screen using the electro-stimulation test (guinea pigs; result in words, dose not given): inactive

CCC1CNCCC1CCC(O)c1ccnc2ccc(OCCC(C)C)cc12 (stereo not drawn) [VII]
Percent increase in voltage (%) required for arrhythmia (guinea pigs; Dose 23.5 mg/kg): 85%

CCC1CNCCC1CCC(O)c1ccnc2ccc(OC)cc12 (stereo not drawn) [dihydroquiniconol, dihydroquinicinol]
anti-malaria activity (malaria): did not show anti-malaria activity
